According to patent US20090012115A1 (Portola Pharmaceuticals, Inc., priority 2007, published 2009):

Columns and labels:
P2Y12 ADP receptor = P2Y12 ADP receptor (Homo sapiens, UniProt Q9H244); conditions: cited from earlier work
[1] = compared with clopidogrel; cited from earlier work
[2] = cited from earlier work
preformed thrombi = test: Thrombus stability / dethrombosis of preformed thrombi; assay type: cell-based
Source text: The addition of a TP antagonist to preformed thrombi caused dethrombosis (FIG. 5A).

platelets [3] = conditions: cited from earlier work
[4] = system: platelet recruitment on the injured vessel wall; test: Intravital microscopy, ferric chloride injury of mesenteric arteries; assay type: in vivo, mice; conditions: Example 5; for antithrombotic activity in P2Y12 heterozygous animals: P2Y12 heterozygous mice; for antithrombotic activity in wild type animals: wild type mice
Procedure: The methodology utilized is intravital microscopy. In this system, injury of the mesenteric arteries is performed by topical application of a filter paper that has been previously soaked into a ferric chloride solution. Monitoring of the recruitment of fluorescently labeled platelets on the injured vessel wall is performed in real time using an inverted fluorescent microscope connected to a computer.

platelets [5] = test: Collagen-induced platelet aggregation (light transmittance aggregometry); assay type: cell-based, human; conditions: for anti-aggregatory activity, collagen-induced platelet aggregation: 1 μM, 100 nM, 350 nM
Procedure: PRP-induced platelet aggregation are performed with arachidonic acid (between 200 μM and 1 mM), U46619 (a TP agonist) (between 0.5 μM and 5 μM) and collagen (around 4 μg/ml) as platelet agonists. Indomethacin and
(§1) Light transmittance aggregometry (LTA) assays were performed by standard procedures, initiating platelet aggregation with collagen or arachidonic acid.

[6] = system: platelets recruited on the collagen surface; test: Real time perfusion chamber thrombosis assay (whole blood over collagen-coated chamber, fluorescent platelets); assay type: cell-based, human; conditions: for interaction with antithrombotic activity of clopidogrel: 12 healthy individuals on clopidogrel 75 mg/d, ifetroban spiked into whole blood, aspirin 325 mg/d over the third week; for antithrombotic activity versus aspirin: 100 nM or 350 nM spiked in vitro
Procedure: The experiment was performed by perfusing whole blood anticoagulated with factor Xa inhibitor (10 μM) through a human collagen type III-coated perfusion chamber. Platelets were fluorescently labeled in vitro using Rhodamine 6G (1.25 μg/ml final concentration), and thrombosis was monitored in real time by measuring the amount of fluorescent platelets recruited on the collagen surface using fluorescence microscopy. The results are depicted in FIG. 3.
The experiments are performed in the real time thrombosis perfusion chamber device. In this system, the real time thrombotic process triggered by perfusion of Factor Xa anticoagulated whole blood is studied using a collagen coated perfusion chamber at arterial shear rates.
A dose response study of the antithrombotic and anti-aggregatory effects of vehicle control, indomethacin (from 10 nM to 10 uM), and ifetroban (from 10 nM to 3 uM) spiked in vitro in the blood of aspirin-intolerant individuals before, and after treatment with clopidogrel (75 mg/d for a minimum of 5 days, n≧10) is performed. Experiments are performed in the real time perfusion chamber assay under arterial shear rates conditions. […] By using indomethacin we can confirm that Cox-1 inhibition indeed can provide additional antithrombotic properties; however, the intolerance prevents the use of a COX-1 inhibitor.
Real time perfusion chamber assays (RTTP) were performed using blood anticoagulated with Fxa inhibitor (10 uM 034) and perfused through collagen-coated capillaries (1100/sec). Thrombus formation on the collagen surface was monitored in real time using fluorescence microscopy to detect fluorescently labeled (R6G) platelets.

platelets [7] = test: Arachidonic acid-induced platelet aggregation (light transmittance aggregometry); assay type: cell-based, human; conditions: healthy volunteers and AERD patients; 1 μM, 350 nM, 100 nM; FIGS. 10A and 10B
Procedure: as §1

leukotrienes = test: In vivo determination of the levels of leukotrienes; parameters: species or system mice; conditions: Example 5; treated animals
Source text: In vivo monitoring of gastrointestinal bleeding and determination of the levels of leukotrienes will be performed.

[8] = Gresele et al.; cited from earlier work
coronary arteries = coronary arteries of dogs; cited from earlier work
[9] = HOT trial, hypertensive patients, 75 mg/d vs placebo

Chain of P2Y12 ADP receptor (Q9H244 whole entry): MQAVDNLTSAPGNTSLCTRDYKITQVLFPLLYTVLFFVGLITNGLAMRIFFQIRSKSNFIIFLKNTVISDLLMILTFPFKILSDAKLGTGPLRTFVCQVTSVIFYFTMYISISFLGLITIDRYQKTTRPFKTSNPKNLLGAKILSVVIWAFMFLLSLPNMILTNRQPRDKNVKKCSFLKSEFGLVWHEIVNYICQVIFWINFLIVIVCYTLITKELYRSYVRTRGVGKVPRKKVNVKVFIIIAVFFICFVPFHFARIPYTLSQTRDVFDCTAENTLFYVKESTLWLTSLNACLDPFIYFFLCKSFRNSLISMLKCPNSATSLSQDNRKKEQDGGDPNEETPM

## CNc1cc2[nH]c(=O)n(-c3ccc(NC(=O)NS(=O)(=O)c4ccc(Cl)s4)cc3)c(=O)c2cc1F
P2Y12 ADP receptor
  de-aggregation of preformed thrombi: de-aggregate preformed thrombi
  inhibition of ADP-mediated platelet aggregation: reversible inhibitor
[1]
  pharmacokinetic properties: superior pharmacokinetic properties to clopidogrel

## O=C(O)CC/C=C\CC[C@@H]1[C@@H](N2CCCCC2)[C@@H](O)C[C@@H]1OCc1ccc(-c2ccccc2)cc1 [GR 32191, [1R-[1α(Z),2β,3β,5α]]-(+)-7-[5-([1,1′-biphenyl]-4-ylmethoxy)-3-hydroxy-2-(1-piperidinyl)cyclopentyl]-4-heptenoic acid]
[2]; CARPORT trial
  prevention of restenosis: lack activity in the prevention of restenosis

## CCCCC[C@H](O)/C=C/[C@H]1C(=O)C[C@H](O)[C@@H]1C/C=C\CCCC(=O)O [PGD2, prostaglandin D2]
Preformed thrombi; physiological concentrations added to aspirinated blood, FIG. 5C
  dethrombotic activity: induced a profound dethrombotic activity

## O=C(O)COc1ccc(CCNS(=O)(=O)c2ccccc2)cc1 [Sulotroban]
[2]; M-HEART-II study, 752 patients
  restenosis following PTCA: no different than aspirin or placebo
[2]; M-HEART-II study
  clinical events (death, MI or clinically important restenosis): inferior to aspirin

## CCCCC[C@H](O)/C=C/[C@@H]1[C@@H](C/C=C\CCCC(=O)O)[C@H]2CO[C@@H]1C2 [U46619]
Preformed thrombi; TXA2 mimetic, FIG. 5B
  thrombus stability: can promote thrombus stability

## COC(=O)[C@H](c1ccccc1Cl)N1CCc2sccc2C1 [clopidogrel]
[2]; CAPRIE trial
  efficacy versus aspirin: more efficacious than aspirin
[2]; CURE trial, clopidogrel with aspirin vs placebo plus aspirin, unstable angina or non-ST segment elevation MI
  relative risk reduction: 20%

## CC(C)Cc1ccc(C(C)C(=O)O)cc1 (stereo not shown) [ibuprofen]
Platelets [3]; Catella-Lawson et al.
  effect of concomitant administration on antiaggregatory activity of aspirin: reduce the antiaggregatory activity of aspirin

## CCCCCNC(=O)c1coc([C@H]2[C@@H](Cc3ccccc3CCC(=O)[O-])[C@@H]3CC[C@H]2O3)n1.[Na+] [ifetroban, [1S-(1α,2α,3α,4α)]-2-[[3-[4-[(pentylamino)carbonyl]-2-oxazolyl]-7-oxabicyclo[2.2.1]hept-2-yl]methyl]benzenepropanoic acid]
[4]
  antithrombotic activity in P2Y12 heterozygous animals: profound inhibition
  antithrombotic activity in wild type animals: at least similar antithrombotic activity
Platelets [5]; AERD patients, FIG. 8B
  anti-aggregatory activity, collagen-induced platelet aggregation: significant anti-aggregatory activity
  concentrations at which aspirin effects on collagen-induced platelet aggregation and thrombosis were reproduced: > 100 nM
Platelets [5]; healthy volunteers, FIG. 8A
  anti-aggregatory activity, collagen-induced platelet aggregation: significant anti-aggregatory activity
Platelets [5]; normal volunteers, FIG. 8A
  concentrations at which aspirin effects on collagen-induced platelet aggregation and thrombosis were reproduced: > 100 nM
[6]; 30 nM to 1 μM spiked into whole blood of normal volunteers treated with clopidogrel 75 mg/day for 2 weeks, FIG. 4
  inhibition of thrombosis on a clopidogrel background: inhibited thrombosis to the same extent as aspirin
[6]; FIG. 4
  interaction with antithrombotic activity of clopidogrel: synergized with the antithrombotic activity of clopidogrel
[6]; AERD patients, aspirin after desensitization, FIG. 7B
  antithrombotic activity versus aspirin: significant antithrombotic activity versus aspirin
[6]; healthy volunteers, FIG. 7A
  antithrombotic activity versus aspirin: significant antithrombotic activity versus aspirin
Platelets [7]
  anti-aggregatory activity, arachidonic acid-induced platelet aggregation: anti-aggregatory activity
leukotrienes
  levels of leukotrienes: maintained constant

## COc1ccc2c(c1)c(CC(=O)O)c(C)n2C(=O)c1ccc(Cl)cc1 [indomethacin]
[8]
  effect on bleeding time prolongation activity of BM 13.177 promoted by dazoxiben: blocked the ability of dazoxiben

## O=C(O)CCCCO/N=C(/c1cccnc1)c1cccc(C(F)(F)F)c1 [ridogrel]
[2]; RAPT study, 907 patients with acute myocardial infarction
  enhancing fibrinolytic efficacy of streptokinase: not found to be superior to aspirin
[2]; RAPT study
  preventing new ischaemic events: may have been more efficacious than aspirin

## CC(C)(C)N/C(=N\C#N)Nc1cccc(/C(=C\CCCC(=O)O)c2cccnc2)c1 [terbogrel, 5-hexenoic acid, 6-[3-[[(cyanoamino)[(1,1-dimethylethyl)amino]methylene]amino]phenyl]-6-(3-pyridinyl)-, (E-)]
Platelets [3]; Zimmermann et al.
  antiaggregatory activities in aspirin-treated individuals: additional antiaggregatory activities

## ortho-acetylsalicylic acid [aspirin]
Coronary arteries
  effect on prolongation in occlusion time by U63,557a with L636,499: inhibited the prolongation in occlusion time
Preformed thrombi; FIG. 5C
  effect of prior aspirin treatment on dethrombotic activity of a TP antagonist: prevented by prior aspirin treatment
[4]
  antithrombotic activity in P2Y12 heterozygous animals: profound inhibition
  antithrombotic activity in wild type animals: at least similar antithrombotic activity
[6]; FIG. 4
  interaction with antithrombotic activity of clopidogrel: synergized with the antithrombotic activity of clopidogrel
[2]; 75-325 mg doses
  individuals developing gastroduodenal ulcers: 1 out of 10
[2]; Antithrombotic Trialist's Collaboration, overall
  reduction in vascular events: 22%
[2]; [9]
  reduction in cardiovascular events: 15%
  reduction in myocardial infarction: 36%
[2]; Primary Prevention Project, 100 mg/d, at-risk patients, reduced from 1.4%
  incidence of cardiovascular death: 0.8%
[2]; hundreds of randomized clinical trials, at-risk patients
  reduction in adverse events: 20-25%
[2]; oral challenge with aspirin or NSAID
  asthmatic adults developing severe bronchoconstriction: 5-20%
leukotrienes
  levels of leukotrienes: increased
